From US20150148551A1, “GENISTEIN FOR REDUCING LEVELS OF STORAGE COMPOUNDS IN THE TREATMENT AND/OR PREVENTION OF LYSOSOMAL STORAGE DISEASES (LSDS)” (3G THERAPEUTICS, INC., priority 2012, published 2015)

Columns and labels:
MPS II and III = conditions: animal tests and pilot clinical trials; cited from earlier work
CTSO = assay: DNA microarray, CTSO expression in fibroblasts exposed to genistein; format: cell-based, human; conditions: for CTSO fold change Average: 48 h vs DMSO
Description: (§1) The experiments were conducted to characterise the transcriptomic profile of human fibroblast cells exposed to genistein, and in particular to determine the expression of genes encoding lysosomal enzymes involved in metabolism (i.e. synthesis and degradation) of organic substances. The absence or deficiency of these enzymes' activity is responsible for occurrence of various lysosomal storage diseases (LSD) (including MPS). The tested hypothesis assumed that genistein influences the expression of many genes, among which there are genes coding for enzymes required in metabolism of compounds, which are pathologically stored in LSD. The results provide important information regarding genistein action on the molecular level within the range of gene expression modulation by this substance. The experiment was conducted in biological quintuplicates. Human dermal fibroblasts (HDFa) were exposed in vitro for 1, 24 or 48 hours to: 30, 60 or 100 μM of genistein; 0.05% DMSO (K1); or were untreated (control cells) (K2), and total RNA was isolated and analysed.
(§2) Fibroblast cells were grown in Dulbecco (DMEM) medium supplemented with 10% fetal bovine serum (FBS) with the addition of 1% antibiotics and anti-fungal agents at 37° C. in humidified atmosphere of 5% CO2, until the required confluency was obtained.
(§3) To determine the effect of tested compound on the transcriptom of the fibroblast cells, the growth medium was replaced with fresh medium, either non-supplemented (0.05% DMSO), or containing genistein (30, 60 or 100 μM, in 0.05% DMSO). The exposure was done for 1, 24 or 48 hours.
(§4) Total RNA was isolated from fibroblasts using High Pure RNA Isolation Kit according to the protocol and then it was quantitatively evaluated using Quant-It™ RiboGreen® Assay Kit.
(§5) Biotinylated cRNA was prepared using Ambion Total PrepAmp Kit for Illumina arrays.
(§6) Standard hybridization and quantitative image analysis procedures—Illumina hybridization protocol and Illumina scanning protocol, were used.
(§7) Processing of the results was done during data definition, including: background correction (using background subtraction method), normalization (using quantile normalization algorithm with Illumina GenomeStudio software package: gene expression module version 1.9.0) and summarization (using method, which sums the values of signal intensities from a set of probes).

GAPDH = assay: DNA microarray, GAPDH reference gene expression in fibroblasts exposed to genistein; format: cell-based, human
Description: as §1, §2, §3, §4, §5, §6, §7

HS3ST3A1 = assay: DNA microarray, HS3ST3A1 expression in fibroblasts exposed to genistein; format: cell-based, human
Description: as §1, §2, §3, §4, §5, §6, §7

NEU1 = assay: DNA microarray, NEU1 expression in fibroblasts exposed to genistein; format: cell-based, human; conditions: for NEU1 fold change Average: 48 h vs DMSO
Description: as §1, §2, §3, §4, §5, §6, §7

ABCA9 = assay: DNA microarray, ABCA9 expression in fibroblasts exposed to genistein; format: cell-based, human; conditions: for ABCA9 fold change Average: 48 h vs DMSO
Description: as §1, §2, §3, §4, §5, §6, §7

CLN5 = assay: DNA microarray, CLN5 expression in fibroblasts exposed to genistein; format: cell-based, human; conditions: for CLN5 fold change Average: 48 h vs DMSO
Description: as §1, §2, §3, §4, §5, §6, §7

LGMN = assay: DNA microarray, LGMN expression in fibroblasts exposed to genistein; format: cell-based, human; conditions: for LGMN fold change Average: 48 h vs DMSO
Description: as §1, §2, §3, §4, §5, §6, §7

Structure (SMILES): O=c1c(-c2ccc(O)cc2)coc2cc(O)cc(O)c12 [genistein, 4′,5,7-trihydroxy-3-phenylchromen-4-one]
- effectiveness in the treatment of MPS II and III (MPS II and III): promising effectiveness
- CTSO fold change Average 1h30/1hK1 (CTSO; 30 μM, 1 h vs 0.05% DMSO): 0.9973 fold change
- CTSO fold change Average (CTSO; 30 μM): 1.2507 fold change
- CTSO fold change Average 1h60/1hK1 (CTSO; 60 μM, 1 h vs 0.05% DMSO): 1 fold change
- CTSO fold change Average (CTSO; 60 μM): 1.276 fold change
- CTSO fold change Average 1h100/1hK1 (CTSO; 100 μM, 1 h vs 0.05% DMSO): 1.07 fold change
- CTSO fold change Average (CTSO; 100 μM): 1.471 fold change
- GAPDH fold change Average 1h30/1hK1 (GAPDH; 30 μM, 1 h vs 0.05% DMSO): 0.9592 fold change
- GAPDH fold change Average 24h30/24hK1 (GAPDH; 30 μM, 24 h vs 0.05% DMSO): 0.93 fold change
- GAPDH fold change Average 48h30/48hK1 (GAPDH; 30 μM, 48 h vs 0.05% DMSO): 0.9412 fold change
- GAPDH fold change Average 1h60/1hK1 (GAPDH; 60 μM, 1 h vs 0.05% DMSO): 0.9817 fold change
- GAPDH fold change Average 24h60/24hK1 (GAPDH; 60 μM, 24 h vs 0.05% DMSO): 0.8905 fold change
- GAPDH fold change Average 48h60/48hK1 (GAPDH; 60 μM, 48 h vs 0.05% DMSO): 0.8088 fold change
- GAPDH fold change Average 1h100/1hK1 (GAPDH; 100 μM, 1 h vs 0.05% DMSO): 0.9385 fold change
- GAPDH fold change Average 24h100/24hK1 (GAPDH; 100 μM, 24 h vs 0.05% DMSO): 0.9556 fold change
- GAPDH fold change Average 48h100/48hK1 (GAPDH; 100 μM, 48 h vs 0.05% DMSO): 0.8652 fold change
- HS3ST3A1 fold change Average 1h30/1hK1 (HS3ST3A1; 30 μM, 1 h vs 0.05% DMSO): 1.027 fold change
- HS3ST3A1 fold change Average 24h30/24hK1 (HS3ST3A1; 30 μM, 24 h vs 0.05% DMSO): 0.835 fold change
- HS3ST3A1 fold change Average 48h30/48hK1 (HS3ST3A1; 30 μM, 48 h vs 0.05% DMSO): 0.7933 fold change
- HS3ST3A1 fold change Average 1h60/1hK1 (HS3ST3A1; 60 μM, 1 h vs 0.05% DMSO): 0.9002 fold change
- HS3ST3A1 fold change Average 24h60/24hK1 (HS3ST3A1; 60 μM, 24 h vs 0.05% DMSO): 0.5744 fold change
- HS3ST3A1 fold change Average 48h61/48hK1 (HS3ST3A1; 60 μM, 48 h vs 0.05% DMSO): 0.6043 fold change
- HS3ST3A1 fold change Average 1h100/1hK1 (HS3ST3A1; 100 μM, 1 h vs 0.05% DMSO): 1.047 fold change
- HS3ST3A1 fold change Average 24h100/24hK1 (HS3ST3A1; 100 μM, 24 h vs 0.05% DMSO): 0.5452 fold change
- HS3ST3A1 fold change Average 48h100/48hK1 (HS3ST3A1; 100 μM, 48 h vs 0.05% DMSO): 0.569 fold change
- NEU1 fold change Average 1h30/1hK1 (NEU1; 30 μM, 1 h vs 0.05% DMSO): 1.2206 fold change
- NEU1 fold change Average (NEU1; 30 μM): 1.6536 fold change
- NEU1 fold change Average 1h60/1hK1 (NEU1; 60 μM, 1 h vs 0.05% DMSO): 1.323 fold change
- NEU1 fold change Average (NEU1; 60 μM): 2.259 fold change
- NEU1 fold change Average 1h100/1hK1 (NEU1; 100 μM, 1 h vs 0.05% DMSO): 1.353 fold change
- NEU1 fold change Average (NEU1; 100 μM): 2.492 fold change
- ABCA9 fold change Average 1h30/1hK1 (ABCA9; 30 μM, 1 h vs 0.05% DMSO): 1.0096 fold change
- ABCA9 fold change Average (ABCA9; 30 μM): 1.3825 fold change
- ABCA9 fold change Average 1h60/1hK1 (ABCA9; 60 μM, 1 h vs 0.05% DMSO): 1.129 fold change
- ABCA9 fold change Average 1h100/1hK1 (ABCA9; 100 μM, 1 h vs 0.05% DMSO): 0.9831 fold change
- ABCA9 fold change Average (ABCA9; 100 μM): 1.635 fold change
- CLN5 fold change Average 1h30/1hK1 (CLN5; 30 μM, 1 h vs 0.05% DMSO): 1.0505 fold change
- CLN5 fold change Average (CLN5; 30 μM): 1.3471 fold change
- CLN5 fold change Average 1h60/1hK1 (CLN5; 60 μM, 1 h vs 0.05% DMSO): 1.028 fold change
- CLN5 fold change Average (CLN5; 60 μM): 1.79 fold change
- CLN5 fold change Average 1h100/1hK1 (CLN5; 100 μM, 1 h vs 0.05% DMSO): 1.05 fold change
- CLN5 fold change Average (CLN5; 100 μM): 2.125 fold change
- LGMN fold change Average 1h30/1hK1 (LGMN; 30 μM, 1 h vs 0.05% DMSO): 0.9392 fold change
- LGMN fold change Average (LGMN; 30 μM): 1.3309 fold change
- LGMN fold change Average 1h60/1hK1 (LGMN; 60 μM, 1 h vs 0.05% DMSO): 0.9963 fold change
- LGMN fold change Average (LGMN; 60 μM): 1.61 fold change
- LGMN fold change Average 1h100/1hK1 (LGMN; 100 μM, 1 h vs 0.05% DMSO): 0.8978 fold change
